In US20060128681A1, “Novel rho inhibitors” (priority 2002, published 2006):
Where two headings read alike, the source gives them in different places.

Legend:
[1] = target: T1, rho transcription termination factor (Escherichia coli, UniProt P0AG30); conditions: for effect on rho poly(C)-dependent ATP hydrolysis in the absence of MgCl2: (DL)DTT-free buffer; for Vpeak(app) / % activity (Vmax or Vpeak) / % efficiency (Vmax/KM or Vpeak/KM) / Vmax(app): Mg^2+-free; for Vpeak(app) / Vmax(app): from activation curves; for % activity (Vmax or Vpeak) / % efficiency (Vmax/KM or Vpeak/KM): relative to Mg^2+; for metal activation profile: absence of MgCl2, 1.9-4000 μM metal; for peak velocity / total metal concentration at peak velocity: absence of MgCl2, FIG. 8; for n (Hill): nonlinear regression of velocity curves;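 for % activity (Vmax or Vpeak): Poly(C)-dependent ATP hydrolysis by wild-type rho with other divalent metals in place of magnesium, radiolabeled ATP at varied levels, TLC phosphorimaging, initial rates from hydrolyzed ATP versus time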;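 for % efficiency (Vmax/KM or Vpeak/KM): Poly(C)-dependent ATP hydrolysis by wild-type rho with other divalent metals in place of magnesium, radiolabeled ATP at varied levels, TLC phosphorimaging, initial rates from hydrolyzed ATP versus time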;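 for Vpeak(app): Poly(C)-dependent ATP hydrolysis by wild-type rho with other divalent metals in place of magnesium, radiolabeled ATP at varied levels, TLC phosphorimaging, initial rates from hydrolyzed ATP versus time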;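 for effect on rho poly(C)-dependent ATP hydrolysis in the absence of MgCl2: Poly(C)-dependent ATP hydrolysis by wild-type rho with other divalent metals in place of magnesium, radiolabeled ATP at varied levels, TLC phosphorimaging, initial rates from hydrolyzed ATP versus time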
Method: Rho poly(C)-dependent ATPase assay. […] The ribonucleotide-stimulated ATPase activity of rho at 32° C. was assayed by the amount of ^32P-labeled inorganic phosphate hydrolyzed from ATP after separation on PEI-TLC plates (prerun with water and dried) using 0.75 M potassium phosphate (pH 3.5) as the mobile phase. Reactions were initiated by adding ATP (varying concentrations) and 0.5 μCi [γ-^32P] ATP to the solution containing 40 mM Tris-HCl (pH 7.9), 50 mM KCl, 100 nM or 250 nM poly(C), 100 or 250 nM rho (monomer) and MgCl2 (1 mM or 10 mM). The TLC plates were exposed to PhosphorImager plates (Fuji and Molecular Dynamics) (3 h), scanned on a Storm 860 PC PhosphorImager and analyzed using Molecular Dynamic's ImageQuant 5.0. The initial rates of the reactions were determined by plotting the amount of ATP hydrolyzed against time. Each reaction was performed in duplicate and the results averaged.
A. Divalent Metal Activation of Rho in the Absence of MgCl2. […] For each metal, wild-type rho was pretreated with 20 mM EDTA to deplete the protein of residual metals and removed the excess EDTA and the metal•EDTA complex by a spin column.

[2] = target: T1, rho transcription termination factor; conditions: for rho inhibition at 4000 μM: 4000 μM metal; for IC50: read-out: I50, rho poly(C)-dependent ATP hydrolysis
Method: Rho poly(C)-dependent ATPase assay. See, generally, Sharp et al., (1983) A kinetic mechanism for the poly(C)-dependent ATPase of the Escherichia coli transcription termination protein, rho, J. Biol. Chem. 258, 3482-3486. The ribonucleotide-stimulated ATPase activity of rho at 32° C. was assayed by the amount of ^32P-labeled inorganic phosphate hydrolyzed from ATP after separation on PEI-TLC plates (prerun with water and dried) using 0.75 M potassium phosphate (pH 3.5) as the mobile phase. Reactions were initiated by adding ATP (varying concentrations) and 0.5 μCi [γ-^32P] ATP to the solution containing 40 mM Tris-HCl (pH 7.9), 50 mM KCl, 100 nM or 250 nM poly(C), 100 or 250 nM rho (monomer) and MgCl2 (1 mM or 10 mM). The TLC plates were exposed to PhosphorImager plates (Fuji and Molecular Dynamics) (3 h), scanned on a Storm 860 PC PhosphorImager and analyzed using Molecular Dynamic's ImageQuant 5.0. The initial rates of the reactions were determined by plotting the amount of ATP hydrolyzed against time. Each reaction was performed in duplicate and the results averaged.
B. Divalent Metal Activation of Rho in the Presence of MgCl2. To provide additional information concerning the roles of divalent metals in rho activation, the poly(C)-dependent assays were repeated in the presence of 10 mM MgCl2 and varying concentrations (10, 20, 40, 80, 125, 160, 250, 320, 500, 640 μM) of the divalent metals.

[3] = target: T1, rho transcription termination factor; parameters: made in house; host or cells: E. coli strain AR120 with plasmid p39-ASE; conditions: poly(dC)-ribo(C)10 ATPase assay, literature (Magyar 1996); cited from earlier work
E. coli RecA = E. coli RecA (Escherichia coli, UniProt P0A7G6); assay: RecA poly(dT)-dependent ATP hydrolysis; format: biochemical; conditions: bicyclomycin 0-400 μM; Zn-(L)DTT equimolar
Method: The validity of some of these new leads has been questioned, and attention is now focused on determining the inhibition pathway for these compounds and whether the inhibitors show enzyme specificity. McGovern et al., (2001) A common mechanism underlying promiscuous inhibitors from virtual and high-throughput screening, J. Med. Chem. 45, 1712-1722. Compounds that show nonspecific interaction have been defined as “promiscuous inhibitors.” The inhibitor specificity of Zn-(L)DTT complexes was tested. […] Next, the time dependency for chelate inhibition was examined because a well-behaved, reversible inhibitor is typically not affected by incubation time. McGovern et al., (2001). […] The effect of Zn-(L)DTT solutions on E. coli RecA poly (dT)-dependent ATP hydrolysis was determined.

[4] = target: T1, rho transcription termination factor; assay: Rho poly(C)-dependent ATPase assay, inhibition by metal chelates and bicyclomycin; format: biochemical, E. coli; parameters: made in house; host or cells: E. coli strain AR120 with plasmid p39-ASE; conditions: (DL)DTT 0.1-0.3 mM alone or equimolar with metal chloride, in presence of MgCl2
Method: Rho poly(C)-dependent ATPase assay.
The reactions were analyzed as described above.

T1 sequence (P0AG30 whole entry): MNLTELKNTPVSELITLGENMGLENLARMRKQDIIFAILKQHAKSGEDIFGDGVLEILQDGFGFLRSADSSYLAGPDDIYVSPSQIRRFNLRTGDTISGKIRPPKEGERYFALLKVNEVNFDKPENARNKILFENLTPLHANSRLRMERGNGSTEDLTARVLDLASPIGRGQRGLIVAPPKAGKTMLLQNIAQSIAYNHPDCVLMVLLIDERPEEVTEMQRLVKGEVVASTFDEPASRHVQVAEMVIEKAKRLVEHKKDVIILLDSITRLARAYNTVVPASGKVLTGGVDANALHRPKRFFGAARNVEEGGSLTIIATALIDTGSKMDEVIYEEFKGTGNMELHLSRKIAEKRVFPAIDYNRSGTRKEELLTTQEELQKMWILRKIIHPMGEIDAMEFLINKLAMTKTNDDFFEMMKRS
Chain of E. coli RecA (P0A7G6 2-353): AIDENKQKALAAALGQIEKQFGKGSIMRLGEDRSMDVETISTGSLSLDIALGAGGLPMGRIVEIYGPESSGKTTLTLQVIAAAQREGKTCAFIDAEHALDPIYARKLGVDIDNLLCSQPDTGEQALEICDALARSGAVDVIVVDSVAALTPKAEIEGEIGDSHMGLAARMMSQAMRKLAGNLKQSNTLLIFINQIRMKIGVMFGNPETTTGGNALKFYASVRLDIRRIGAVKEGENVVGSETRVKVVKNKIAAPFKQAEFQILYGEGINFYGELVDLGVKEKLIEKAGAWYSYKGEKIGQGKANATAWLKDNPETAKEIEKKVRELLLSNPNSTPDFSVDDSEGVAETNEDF

[Cd+2] [Cd^2+]
effect on rho poly(C)-dependent ATP hydrolysis in the absence of MgCl2 [1]: activated | Vpeak(app) [1]: 4.74 mol/min/mg | % activity (Vmax or Vpeak) [1]: 39% | % efficiency (Vmax/KM or Vpeak/KM) [1]: 20% | metal activation profile [1]: peak velocities | peak velocity [1]: 4.8 µmol/min/mg | total metal concentration at peak velocity [1]: 65 µM | n (Hill) [1]: 4.6 | effect on ATP hydrolysis rate in the presence of MgCl2 ([2]; 10 mM MgCl2): negligible effects

C=C1CCO[C@]2([C@@H](O)[C@@](C)(O)CO)NC(=O)[C@@]1(O)NC2=O [bicyclomycin, Bicyclomycin]
inhibition kinetics with respect to ribo(C)10 [3]: mixed inhibition pattern | effect on RecA poly(dT)-dependent ATP hydrolysis (E. coli RecA): no loss in RecA ATPase activity

[Cl][Mn][Cl] [Mn^2+]
efficiency (Vmax/KM or Vpeak/KM) relative to Co^2+ [1]: 1.6 times | % of maximum activity at 4000 μM ([1]; 4000 μM total metal): 10% | effect on rho poly(C)-dependent ATP hydrolysis in the absence of MgCl2 [1]: activated | Vpeak(app) [1]: 11.9 mol/min/mg | % activity (Vmax or Vpeak) [1]: 97% | % efficiency (Vmax/KM or Vpeak/KM) [1]: 89% | metal activation profile [1]: peak velocities | peak velocity [1]: 11.9 µmol/min/mg | total metal concentration at peak velocity [1]: 250 µM | n (Hill) [1]: 1

[Cl-].[Cl-].[Zn+2] [Zn^2+]
activity remaining at 190 μM total metal ([1]; 190 μM [Zn^2+]total): 50% | velocity at 1000 μM total metal ([1]; 1000 μM [Zn^2+]total): zero | effect on rho poly(C)-dependent ATP hydrolysis in the absence of MgCl2 [1]: activated | Vpeak(app) [1]: 9.98 mol/min/mg | % activity (Vmax or Vpeak) [1]: 81% | % efficiency (Vmax/KM or Vpeak/KM) [1]: 51% | metal activation profile [1]: peak velocities | peak velocity [1]: 9.4 µmol/min/mg | total metal concentration at peak velocity [1]: 125 µM | n (Hill) [1]: 5.5 | IC50 ([1]; read-out: I50, rho poly(C)-dependent ATP hydrolysis, 0 mM MgCl2, estimated): 190 µM | rho inhibition at 4000 μM ([2]; 10 mM MgCl2): ~50% | effect on ATP hydrolysis rate in the presence of MgCl2 ([2]; 10 mM MgCl2): inhibited | change of I50 on 10-fold poly(C) ([2]; poly(C) concentration increased 10-fold): increased only slightly | IC50 ([2]; 1 mM MgCl2, estimated): 190 µM | IC50 ([2]; 10 mM MgCl2): 4000 µM

[Be+2].[Cl-].[Cl-] [Be^2+]
Vmax(app) [1]: 0.21 mol/min/mg | % activity (Vmax or Vpeak) [1]: 2% | metal activation profile [1]: did not catalyze ATP hydrolysis | activity at 100 μM ([2]; 100 μM BeCl2, 10 mM MgCl2): almost complete loss of activity | effect on ATP hydrolysis rate in the presence of MgCl2 ([2]; 10 mM MgCl2): inhibited | IC50 ([2]; 10 mM MgCl2): 63 µM

[Mg+2] [Mg^2+]
efficiency (Vmax/KM or Vpeak/KM) relative to Co^2+ [1]: 1.5 times | Vmax(app) [1]: 12.3 mol/min/mg | % activity (Vmax or Vpeak) [1]: 100% | % efficiency (Vmax/KM or Vpeak/KM) [1]: 100% | metal activation profile [1]: Michaelis-Menten kinetics | n (Hill) [1]: 1

[O]=[V+2] [VO^2+]
Vmax(app) [1]: 0.78 mol/min/mg | % activity (Vmax or Vpeak) [1]: 6% | metal activation profile [1]: Michaelis-Menten kinetics | n (Hill) [1]: 1 | effect on ATP hydrolysis rate in the presence of MgCl2 ([2]; 10 mM MgCl2): negligible effects

OC(CS)C(O)CS (racemic) [(DL)DTT, dithiothreitol]
effect on rho poly(C)-dependent ATP hydrolysis [4]: did not inactivate the enzyme

[Sr+2] [Sr^2+]
Vmax(app) [1]: 0.17 mol/min/mg | % activity (Vmax or Vpeak) [1]: 1% | metal activation profile [1]: did not catalyze ATP hydrolysis | n (Hill) [1]: 1 | effect on ATP hydrolysis rate in the presence of MgCl2 ([2]; 10 mM MgCl2): negligible effects

[Cl][Ni][Cl] [Ni^2+]
effect on rho poly(C)-dependent ATP hydrolysis in the absence of MgCl2 [1]: activated | Vmax(app) [1]: 4.79 mol/min/mg | % activity (Vmax or Vpeak) [1]: 39% | % efficiency (Vmax/KM or Vpeak/KM) [1]: 29% | metal activation profile [1]: sigmoidal activation pattern | n (Hill) [1]: 2.9 | effect on ATP hydrolysis rate in the presence of MgCl2 ([2]; 10 mM MgCl2): negligible effects

[Ca+2] [Ca^2+]
Vmax(app) [1]: 3.13 mol/min/mg | % activity (Vmax or Vpeak) [1]: 25% | % efficiency (Vmax/KM or Vpeak/KM) [1]: 74% | metal activation profile [1]: Michaelis-Menten kinetics | n (Hill) [1]: 1 | effect on ATP hydrolysis rate in the presence of MgCl2 ([2]; 10 mM MgCl2): negligible effects

[Co+2] [Co^2+]
Vmax(app) [1]: 7.65 mol/min/mg | % activity (Vmax or Vpeak) [1]: 62% | % efficiency (Vmax/KM or Vpeak/KM) [1]: 61% | metal activation profile [1]: Michaelis-Menten kinetics | n (Hill) [1]: 1 | effect on ATP hydrolysis rate in the presence of MgCl2 ([2]; 10 mM MgCl2): negligible effects

[Hg+2] [Hg^2+]
Vmax(app) [1]: 0.78 mol/min/mg | % activity (Vmax or Vpeak) [1]: 6% | % efficiency (Vmax/KM or Vpeak/KM) [1]: 29% | metal activation profile [1]: Michaelis-Menten kinetics | n (Hill) [1]: 1 | rho inhibition at 4000 μM ([2]; 10 mM MgCl2): ~50% | effect on ATP hydrolysis rate in the presence of MgCl2 ([2]; 10 mM MgCl2): inhibited

[Cu+2] [Cu^2+]
Vmax(app) [1]: 1.54 mol/min/mg | % activity (Vmax or Vpeak) [1]: 13% | % efficiency (Vmax/KM or Vpeak/KM) [1]: 39% | metal activation profile [1]: Michaelis-Menten kinetics | n (Hill) [1]: 1 | effect on ATP hydrolysis rate in the presence of MgCl2 ([2]; 10 mM MgCl2): inhibited | loss of activity ([2]; 10 mM MgCl2): ~30%
